The text below walks through data of patent US8309546B2, “Morpholinopurine derivatives” (Daiichi Sankyo Company, Limited, priority 2008, dated 2012).

Molecules are shown by their SMILES.

Experiment [1] concerns Akt (threonine 308) phosphorylation in AN3CA tumor. As to the kind of experiment: Akt phosphorylation inhibition assay in xenograft. The format is in vivo, female nude mouse. To be noted: Mus musculus, AN3-CA, oral, 6 hr after dosing. The procedure, abridged: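 AN3CA human endometrial cancer cells grown as subcutaneous xenografts in female nude mice; compound dosed orally at a set concentration, tumors excised after a set time. Tumor lysates at equal protein were western blotted for p-Akt(T308) and p-S6(S235/236). Inhibition (%) = 100−100×(treated/untreated phospho signal).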

In experiment [2] the test system is human colon cancer cell strain HT29. As to the kind of experiment: Cell growth inhibition test (MTT), HT29. The note with it: HT-29, 72 h, HT29, 3 days culture, read-out: concentration exhibiting anti-cell effect (GI50). The class given is cell-based. The procedure, abridged: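 MTT read-out at 540 nm after 4 h formazan formation gives living cell count following 3-day compound exposure at 37° C, 5% CO2. Seeding: 5000 AN3CA, 1000 IGROV1, 5000 HT29 cells/well. Growth rate T/C % = 100×[(B−C)/(A−C)], with C taken before dosing; GI50 = concentration giving 50% growth.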

For `CC(C)Cn1c(N2CCN(C=O)[C@H](C)C2)nc2c(N3CCOCC3)nc(-c3cnc(N)nc3)nc21` [Example 100, (2R)-4-[2-(2-Aminopyrimidin-5-yl)-9-isobutyl-6-morpholin-4-yl-9H-purin-8-yl]-2-methylpiperazine-1-carboaldehyde], the inhibition (in general, the share of the control response that was lost under treatment) at 10 mg/kg in experiment [1] was more than 60%. Also, in experiment [2], the GI50 was not above 5 µM.

The molecule `CC(=O)N1CCN(c2nc3c(N4CCOCC4)nc(-c4cnc(N)nc4)nc3n2CC(C)C)C[C@@H]1C` [Example 101, 5-{8-[(3S)-4-Acetyl-3-methylpiperazin-1-yl]-9-isobutyl-6-morpholin-4-yl-9H-purin-2-yl}pyrimidin-2-amine] yielded an inhibition at 10 mg/kg in experiment [1] of more than 60%. In experiment [2], the GI50 was not above 5 µM.

Consider `CC(C)Cn1c(N2CCN(C=O)[C@@H](C)C2)nc2c(N3CCOCC3)nc(-c3cnc(N)nc3)nc21` [Example 102, (2S)-4-[2-(2-Aminopyrimidin-5-yl)-9-isobutyl-6-morpholin-4-yl-9H-purin-8-yl]-2-methylpiperazine-1-carboaldehyde], for which the inhibition at 10 mg/kg in experiment [1] was more than 60%. Moreover, the GI50 in experiment [2] was not above 5 µM.

As to `CC(C)Cn1c(N2CCN(C(=O)[C@H](C)O)[C@H](C)C2)nc2c(N3CCOCC3)nc(-c3cnc(N)nc3)nc21` [Example 103, (2S)-1-{(2R)-4-[2-(2-Aminopyrimidin-5-yl)-9-isobutyl-6-morpholin-4-yl-9H-purin-8-yl]-2-methylpiperazin-1-yl}-1-oxopropan-2-ol], the inhibition at 10 mg/kg in experiment [1] was more than 60%. Further, the GI50 in experiment [2] was not above 5 µM.

`CC(C)Cn1c(N2CCN(C(=O)[C@H](C)O)[C@@H](C)C2)nc2c(N3CCOCC3)nc(-c3cnc(N)nc3)nc21` [Example 104, (2S)-1-{(2S)-4-[2-(2-Aminopyrimidin-5-yl)-9-isobutyl-6-morpholin-4-yl-9H-purin-8-yl]-2-methylpiperazin-1-yl}-1-oxopropan-2-ol]: the inhibition at 10 mg/kg in experiment [1] is more than 60%. Moreover, in experiment [2], the GI50 is not above 5 µM.

On to `CNc1ncc(-c2nc(N3CCOCC3)c3nc(N4CCN(S(C)(=O)=O)[C@@H](C)C4)n(CC(F)(F)F)c3n2)cn1` [Example 105, N-Methyl-5-{8-[(3S)-3-methyl-4-(methylsulfonyl)piperazin-1-yl]-6-morpholin-4-yl-9-(2,2,2-trifluoroethyl)-9H-purin-2-yl}pyrimidin-2-amine], for which the inhibition at 10 mg/kg in experiment [1] was in the range of 30 to 60%. The GI50 in experiment [2] is not above 5 µM.

In experiment [1], `CNc1ncc(-c2nc(N3CCOCC3)c3nc(N4CCN(S(C)(=O)=O)[C@H](C)C4)n(CC(F)(F)F)c3n2)cn1` [Example 106, N-Methyl-5-{8-[(3R)-3-methyl-4-(methylsulfonyl)piperazin-1-yl]-6-morpholin-4-yl-9-(2,2,2-trifluoroethyl)-9H-purin-2-yl}pyrimidin-2-amine] registered an inhibition at 10 mg/kg of more than 60%. For the same molecule, the GI50 in experiment [2] was not above 5 µM.

On to `CNc1ncc(-c2nc(N3CCOCC3)c3nc(N4CCN(C(C)=O)[C@@H](C)C4)n(CC(F)(F)F)c3n2)cn1` [Example 107, 5-{8-[(3S)-4-Acetyl-3-methylpiperazin-1-yl]-6-morpholin-4-yl-9-(2,2,2-trifluoroethyl)-9H-purin-2-yl}-N-methylpyrimidin-2-amine], for which the inhibition at 10 mg/kg in experiment [1] was more than 60%. The GI50 in experiment [2] is not above 5 µM.

In experiment [1], `CNc1ncc(-c2nc(N3CCOCC3)c3nc(N4CCN(C(C)=O)[C@H](C)C4)n(CC(F)(F)F)c3n2)cn1` [Example 108, 5-{8-[(3R)-4-Acetyl-3-methylpiperazin-1-yl]-6-morpholin-4-yl-9-(2,2,2-trifluoroethyl)-9H-purin-2-yl}-N-methylpyrimidin-2-amine] came in with an inhibition at 10 mg/kg of more than 60%. Further, the GI50 in experiment [2] was not above 5 µM.

With `C[C@H](O)C(=O)N1CCN(c2nc3c(N4CCOCC4)nc(-c4cnc(N)nc4)nc3n2CC(F)(F)F)C[C@@H]1C` [Example 109, (2S)-1-{(2S)-4-[2-(2-Aminopyrimidin-5-yl)-6-morpholin-4-yl-9-(2,2,2-trifluoroethyl)-9H-purin-8-yl]-2-methylpiperazin-1-yl}-1-oxopropan-2-ol], the inhibition at 10 mg/kg in experiment [1] is more than 60%. Besides, the GI50 in experiment [2] was not above 5 µM.

Molecule `C[C@H](O)C(=O)N1CCN(c2nc3c(N4CCOCC4)nc(-c4cnc(N)nc4)nc3n2CC(F)(F)F)C[C@H]1C` [Example 110, (2S)-1-{(2R)-4-[2-(2-Aminopyrimidin-5-yl)-6-morpholin-4-yl-9-(2,2,2-trifluoroethyl)-9H-purin-8-yl]-2-methylpiperazin-1-yl}-1-oxopropan-2-ol] returned an inhibition at 10 mg/kg in experiment [1] of more than 60%. Further, the GI50 in experiment [2] is not above 5 µM.

On to `C[C@H]1CN(c2nc3c(N4CCOCC4)nc(-c4cnc(N)nc4)nc3n2CC(F)(F)F)CCN1C=O` [Example 111, (2S)-4-[2-(2-Aminopyrimidin-5-yl)-6-morpholin-4-yl-9-(2,2,2-trifluoroethyl)-9H-purin-8-yl]-2-methylpiperazine-1-carboaldehyde], for which the inhibition at 10 mg/kg in experiment [1] is more than 60%. For the same molecule, the GI50 in experiment [2] was not above 5 µM.

`C[C@@H]1CN(c2nc3c(N4CCOCC4)nc(-c4cnc(N)nc4)nc3n2CC(F)(F)F)CCN1C=O` [Example 112, (2R)-4-[2-(2-Aminopyrimidin-5-yl)-6-morpholin-4-yl-9-(2,2,2-trifluoroethyl)-9H-purin-8-yl]-2-methylpiperazine-1-carboaldehyde] gave an inhibition at 10 mg/kg in experiment [1] of more than 60%. Also, the GI50 in experiment [2] was not above 5 µM.

Consider `C[C@@H](O)C(=O)N1CCN(c2nc3c(N4CCOCC4)nc(-c4cnc(N)nc4)nc3n2CC2CC2)C[C@@H]1C` [Example 113, (2R)-1-{(2S)-4-[2-(2-Aminopyrimidin-5-yl)-9-(cyclopropylmethyl)-6-morpholin-4-yl-9H-purin-8-yl]-2-methylpiperazin-1-yl}-1-oxopropan-2-ol], for which the inhibition at 10 mg/kg in experiment [1] is more than 60%. In addition, the GI50 in experiment [2] is not above 5 µM.

The molecule `C[C@@H]1CN(c2nc3c(N4CCOCC4)nc(-c4cnc(N)nc4)nc3n2CC2CC2)CCN1C(=O)[C@@H](C)O` [Example 114, (2R)-1-{(2R)-4-[2-(2-Aminopyrimidin-5-yl)-9-(cyclopropylmethyl)-6-morpholin-4-yl-9H-purin-8-yl]-2-methylpiperazin-1-yl}-1-oxopropan-2-ol] returned an inhibition at 10 mg/kg in experiment [1] of more than 60%. In experiment [2], the GI50 was not above 5 µM.

In experiment [1], `CC(=O)N1[C@H](C)CN(c2nc3c(N4CCOCC4)nc(-c4cnc(N)nc4)nc3n2CC(F)(F)F)C[C@@H]1C` [Example 115, 5-[8-(4-Acetyl-cis-3,5-dimethylpiperazin-1-yl)-6-morpholin-4-yl-9-(2,2,2-trifluoroethyl)-9H-purin-2-yl]pyrimidin-2-amine] came in with an inhibition at 10 mg/kg of more than 60%. Besides, the GI50 in experiment [2] was not above 5 µM.

Turning to `C[C@@H]1CN(c2nc3c(N4CCOCC4)nc(-c4cnc(N)nc4)nc3n2CC(F)(F)F)C[C@H](C)N1C=O` [Example 116, 4-[2-(2-Aminopyrimidin-5-yl)-6-morpholin-4-yl-9-(2,2,2-trifluoroethyl)-9H-purin-8-yl]-cis-2,6-dimethylpiperazine-1-carboaldehyde], in experiment [1], the inhibition at 10 mg/kg was more than 60%. For the same molecule, in experiment [2], the GI50 was not above 5 µM.

In experiment [1], `CCC(=O)N1CCN(c2nc3c(N4CCOCC4)nc(-c4cnc(N)nc4)nc3n2CC(F)(F)F)CC1` [Example 117, 5-[6-Morpholin-4-yl-8-(4-propionylpiperazin-1-yl)-9-(2,2,2-trifluoroethyl)-9H-purin-2-yl]pyrimidin-2-amine] had an inhibition at 10 mg/kg of 30 to 60%. In addition, the GI50 in experiment [2] is not above 5 µM.

Molecule `CC(=O)N1CCN(c2nc3c(N4CCOCC4)nc(-c4cnc(N)nc4)nc3n2CC(F)(F)F)CC12CC2` [Example 119, 5-[8-(4-Acetyl-4,7-diazaspiro[2.5]oct-7-yl)-6-morpholin-4-yl-9-(2,2,2-trifluoroethyl)-9H-purin-2-yl]pyrimidin-2-amine] returned an inhibition at 10 mg/kg in experiment [1] of 30 to 60%. For the same molecule, the GI50 in experiment [2] was not above 5 µM.

In the case of `CC(=O)N1CCN(c2nc3c(N4CCOC[C@@H]4C)nc(-c4cnc(N)nc4C)nc3n2CC2CC2)CC1` [Example 128, 5-{8-(4-acetylpiperazin-1-yl)-9-(cyclopropylmethyl)-6-[(3S)-3-methylmorpholin-4-yl]-9H-purin-2-yl}-4-methylpyrimidin-2-amine], in experiment [1], the inhibition at 10 mg/kg lay in the range of 30 to 60%. Besides, the GI50 in experiment [2] is not above 5 µM.

For the molecule `CC(C)Cn1c(N2CCN(C(=O)CO)CC2)nc2c(N3CCOC[C@@H]3C)nc(-c3cnc(N)nc3)nc21` [Example 130, 2-(4-{2-(2-Aminopyrimidin-5-yl)-9-isobutyl-6-[(3S)-3-methylmorpholin-4-yl]-9H-purin-8-yl}piperazin-1-yl)-2-oxoethanol], the inhibition at 10 mg/kg in experiment [1] is 30 to 60%. For the same molecule, the GI50 in experiment [2] is not above 5 µM.

The molecule `CC(C)Cn1c(N2CCN(C(=O)[C@H](C)O)CC2)nc2c(N3CCOC[C@@H]3C)nc(-c3cnc(N)nc3)nc21` [Example 131, (2S)-1-(4-{2-(2-Aminopyrimidin-5-yl)-9-isobutyl-6-[(3S)-3-methylmorpholin-4-yl]-9H-purin-8-yl}piperazin-1-yl)-1-oxopropan-2-ol] displayed an inhibition at 10 mg/kg in experiment [1] of more than 60%. The GI50 in experiment [2] is not above 5 µM.

Molecule `CC(C)Cn1c(N2CCN(C=O)CC2)nc2c(N3CCOC[C@@H]3C)nc(-c3cnc(N)nc3)nc21` [Example 132, 4-{2-(2-Aminopyrimidin-5-yl)-9-isobutyl-6-[(3S)-3-methylmorpholin-4-yl]-9H-purin-8-yl}piperazine-1-carboaldehyde] yielded an inhibition at 10 mg/kg in experiment [1] of more than 60%. In addition, in experiment [2], the GI50 is not above 5 µM.

Molecule `CNc1ncc(-c2nc(N3CCOCC3)c3nc(N4CCN(C(C)=O)CC4)n(CC(F)(F)F)c3n2)cn1` [Example 134, 5-[8-(4-Acetylpiperazin-1-yl)-6-morpholin-4-yl-9-(2,2,2-trifluoroethyl)-9H-purin-2-yl]-N-methylpyrimidin-2-amine] displayed an inhibition at 10 mg/kg in experiment [1] of 30 to 60%. In experiment [2], the GI50 is not above 5 µM.
